# From a melting point compilation (Tetko et al.; mined from patent text by program, amines drawn as free bases though some values may be those of a salt)
row,melting point [°C],Structure (SMILES)
1,65 to 66,CC(C)=CCC/C(C)=C/COc1c(I)c(C)c(I)c(C)c1I
2,215 to 217,COc1ccc2cc3ncc(C#N)c(Nc4ccc(Cl)cc4Cl)c3cc2c1
3,84,CC(C)(C)[Si](C)(C)OCC1(CO[Si](C)(C)C(C)(C)C)c2ccccc2-c2ccccc21
4,87 to 88,COc1ccc(COC(=O)N[C@@H](Cc2ccccc2)C(=O)O)cc1
5,106 to 107,CCCc1c(OCCCOc2ccc(C(=O)CCCCC(=O)O)cc2F)ccc(C(C)=O)c1O
6,125 to 127,CC=CCN(Cc1cc(C)ccc1C)c1ncnc2c1ncn2C1OC(CO)C(O)C1O (stereo not given)
7,> 300,Cn1cccc(C(=O)Nc2ccc3c(c2)NC(=O)/C3=C\c2ccc[nH]2)c1=O
8,127 to 129,Cc1nc(-c2nn(Cc3ccccc3)c3ccccc23)oc1CO
9,226 to 227,O=c1[nH]cnc(C(F)(F)F)c1Br
10,131 to 133,CCN(CC)CCN(C)CCC1CCCCN1C(=O)N1c2ccccc2NC(=O)c2csc(C)c21 (stereo not given)
11,105 to 106,O=c1oc(/C=C/c2ccccc2)ns1
12,99,CCCCSC(=O)NC(=O)C(c1ccccc1)c1ccccc1
13,270,CC1Nc2ccc(NC(=O)c3ccc(-c4ccccc4)cc3)cc2N1C (stereo not given)
14,158 to 161,CC(=O)c1cc(Cl)ccc1Nc1ccc(O)cc1
15,122 to 124,CN(C)C(=O)C(C)(C)n1cc(Br)c(-c2ccccc2)n1
16,54 to 55,CC(C)(C)OC(=O)CCc1ccc(Cc2nnn(C(C)(C)C)n2)cc1
17,158 to 160,Brc1ccc(C2CC(n3cncn3)c3ccccc3N2)cc1 (stereo not given)
18,114 to 115,C=CCn1nc(-c2ccc(O)cc2O)c2cccc(C(F)(F)F)c21
19,117,Cc1nc2cc(C(c3cccc(Cl)c3)n3ccnc3)ccc2[nH]1 (stereo not given)
20,168 to 174,Cc1ccc(C(=S)c2cc(F)cc3c2NC(=O)C3)cc1
21,95 to 98,CCC(=O)NC[C@@H]1C[C@H]1c1cccn2nc(C)cc12 (relative stereo)
22,280 to 290,Cc1[nH]c(=O)c(C#N)cc1-c1ccccc1
23,173 to 174,CS(=O)(=O)c1ccc(-c2c(-c3ccccc3)sc3ccccc23)cc1
24,99 to 100,O=C(OCc1ccccc1)C1NN=C(c2ccc(C(F)(F)F)cc2)S1 (stereo not given)
25,140 to 142,COc1cc(OC)c(/C=C/S(=O)(=O)CS(=O)(=O)/C=C/c2c(OC)cc(OC)cc2OC)c(OC)c1

row,melting point [°C],Structure (SMILES)
1,118 to 119,O=C1Cc2cc3c(CCC4CCN(Cc5ccccc5)CC4)noc3cc2N1
2,122 to 124,COc1ccc(COc2ccc([N+](=O)[O-])cc2)cc1
3,145 to 146,COC(=O)c1ccc(O)c(I)c1
4,154 to 155,COc1ccnc(CCc2nc3cc(-c4ccsc4)cnc3[nH]2)c1
5,68 to 70,CCc1ncc(CCCOc2c(C)cc(-c3noc(C(F)F)n3)cc2C)s1
6,65 to 67,Cc1ccc(NCCOS(C)(=O)=O)c([N+](=O)[O-])c1
7,162 to 165,C[C@@H]1S[C@@H](C(=O)N(C)c2ccc(CN3CCOCC3)cc2)Cc2cc3c(cc2C1=O)OCO3
8,197 to 204,COc1ccc2c(c1)cc(C(=O)O)n2-c1ccccc1
9,255 to 258,O=S1(=O)c2ccccc2N(c2cc(F)cc(F)c2)c2ccccc21
10,105 to 106,Cc1ccc(C(=O)N2CCN(CCc3ccc(Cl)cc3)CC2)cc1
11,81 to 84,CCC(COc1cccc(COc2cccc3ccc(=O)[nH]c23)c1)OC(C)=O (stereo not given)
12,132,COC(=O)c1nc2c(NC(=O)C(C)(C)C)cccn2c1C
13,114 to 116,CCS(=O)(=O)N(c1ccc(F)cc1Br)S(=O)(=O)CC
14,145 to 147,O=C(O)CCCC1=C(n2nc(-c3c(-c4ccccc4)nn4ccccc34)ccc2=O)CCCC1
15,216 to 219,CCOC(=O)c1cn(C2CC2)c2cc(-n3cccc3)c(F)cc2c1=O
16,146 to 149,CC(=O)NC[C@H]1CN(c2ccc(N3CCC(O)(CN=[N+]=[N-])CC3)c(F)c2)C(=O)O1
17,138 to 141,O=S(=O)(NCc1ccncc1)c1ccc(-c2ccccc2Cl)cc1
18,> 270,NC(=O)NCNC(N)=O
19,70 to 72,OCc1cc(N2CCCCC2)ncn1
20,106,Cn1c(CON)ncc(O)c1=O
21,134 to 135,CCOC(=O)C1=C(C)NC(SCc2ccc(OC)cc2)=NC1c1cccc(Cl)c1Cl (stereo not given)
22,163 to 165,COc1cn(-c2ccc(N(N)C(=O)OC(C)(C)C)cc2F)nc(-c2ccnn2-c2ccccc2)c1=O
23,248 to 250,Cc1cc(C)c(C2C(=O)N3CCOCCN3C2=O)c(C)c1
24,174,CCOc1ccccc1NC(N)=S
25,75 to 77,CCN(CC)C(=O)n1ccc(S(=O)(=O)c2ccc(Br)c(C)c2)n1

row,melting point [°C],Structure (SMILES)
1,134 to 136,CCOC(=O)C1=C(Cl)C(OCC)=NS1(=O)=O
2,233 to 235,c1ccc(NC2=NC3CCCc4cccc(c43)N2)cc1 (stereo not given)
3,151 to 153,O=C(NCCC(=O)N1CCCC1)c1ccc(-c2ccc3nnn(Cc4ccc5ncccc5c4)c3n2)cc1F
4,133 to 135,CC1(C(=O)C(=Cc2ccc(Cl)cc2Cl)n2cncn2)COCOC1
5,221,O=C1NC(=O)C(Cc2ccc(OCCON=Cc3ccncc3)cc2)S1 (stereo not given)
6,106 to 108,CC1CC(c2cc3c(C(F)(F)F)cccc3s2)CCN1 (stereo not given)
7,111 to 112,COc1ccc(C(=O)N2CCN(Cc3ccccc3)c3ccccc32)cc1OC
8,215 to 216,COc1ccccc1N1CCN(CCn2c(=O)c3sccc3n(CCC(=O)O)c2=O)CC1
9,218,Cc1cc(-c2ccc(C(F)(F)F)cc2)nc(-c2ccnc(-c3cccc(S(N)(=O)=O)c3)c2)n1
10,55 to 57,CCOC(=O)CCC(C)C1CCC2C3C(O)C(CC)C4CC(O)CCC4(C)C3CCC12C (stereo not given)
11,126 to 128,O=C(NC(=S)NCCSCc1c[nH]cn1)c1ccccc1
12,181 to 184,N#Cc1c(Cl)ccc([N+](=O)[O-])c1N
13,94 to 97,CCOC(=O)C1(c2ccc(OCc3ccccc3)cc2)CC2=C(C1)C(=O)C(OC)=C(OC)C2=O
14,205 to 206,O=C(c1ccc(Cl)cc1)c1ccc(Cc2c(Cl)cc(N3N=CCNC3=O)cc2Cl)cc1
15,122 to 124,O=Cc1c2ccccc2cc2cc(Cl)ccc12
16,192,COc1cccc(C2=C(C#N)C(c3ccccc3OC)c3c[nH]nc3N2)c1 (stereo not given)
17,128 to 129,CCCNc1cc(-c2c(-c3cccc(C)c3)nc3cccnn23)ccn1
18,135 to 136,C=CCc1c(OC)c(=O)[nH]c2cc(Cl)ccc2c1=O
19,238 to 239,CN(C(=O)c1ccc2nonc2c1)C1CCS(=O)(=O)CC1
20,289 to 290,N#CC(C(=O)Nc1cccc(Br)c1)C(=O)c1nn(-c2ccccc2)c2c1Cc1ccccc1-2 (stereo not given)
21,95 to 96,COc1cccc(CN2C(=NCCCn3ccnc3)c3cccc4cccc2c34)c1
22,220 to 222,Cc1nc2c(O[C@@H]3c4ccccc4C[C@H]3O)cc(Cl)cn2c1C=O (relative stereo)
23,118 to 121,CCCCCCCc1ccccc1C=CC(=O)c1ccc(OCC=C(C)C)cc1OCC(=O)O
24,123 to 125,CS(=O)(=O)Nc1cccc(SCc2ccccc2)n1
25,120,COC(=O)c1nc2nc(COC(C)=O)cc(Cl)n2n1

row,melting point [°C],Structure (SMILES)
1,105 to 107,CCc1nc2c(cnn2CC)c(NC2CCOCC2)c1CNC(=O)c1cccc(C(=O)NCc2ccc(Cl)c(-c3cccc(CN4CCCN(C)CC4)c3)c2)c1
2,96 to 97,CC(=O)OC1CSC(Oc2cc(-c3cncnc3)cnc2F)C(OC(C)=O)C1OC(C)=O (stereo not given)
3,260 to 261,O=C(O)CNc1cc(C(=O)O)nc2ccccc12
4,133 to 135,COc1ccc2c(c1)C(CCNC(C)=O)=C(Cc1ccccc1)C2
5,168 to 170,O=C(Nc1ccc(F)c(F)c1)C12CC3CC(CC(C3)C1)C2
6,138 to 142,O=S(=O)(NC1CCC(O)CC1)c1ccc(Cl)cc1 (stereo not given)
7,119 to 120,Cc1c(C)c2c(c(C)c1NC(=O)OC(C)(C)C)C(c1ccc(C(C)C)cc1)C(C)(C)O2 (stereo not given)
8,131 to 134,O=[N+]([O-])c1cc(C(F)(F)F)ccc1Sc1ccc(O)cc1
9,222 to 225,Nc1ncnc2c1ncn2OC(CO)COCP(=O)(O)O (stereo not given)
10,106 to 107,CN(CCN1C(=O)c2ccccc2C(C)(C)C1=O)CCN1C(=O)c2ccccc2C(C)(C)C1=O
11,173 to 174,CNS(=O)(=O)c1cc(C(=O)NCC2CCCN2CC2CC2)c(OC)cc1N (stereo not given)
12,116 to 118,COc1ccc(-n2cccc2-c2ccc(S(C)(=O)=O)cc2)cc1F
13,177 to 178,Cc1ccc(-c2ccc(Cl)c(C(=O)O)n2)cc1C(=O)NCC1CCCCCC1
14,202 to 205,C[C@H]1CC[C@H]2C(C)(C)C(=NN3CCOCC3)CC[C@]23Oc2c(c(O)cc4c2CNC4=O)C[C@]13C
15,92 to 95,C#Cc1cccc(OCc2ccc(OC)cc2)c1
16,125 to 127,COc1ccc2c(c1)C1=C(SCC3(CCN(C(=O)c4cccc(Cl)c4)CC3)O1)C(=O)C2=O
17,111 to 112,CCOC(=O)c1ccc(CC(=O)NC(CC(C)C)c2ccccc2N2CCCCC2)cc1OCC (stereo not given)
18,146 to 148,CSc1sc(-c2ncn(C)n2)c2c1C(=O)CC(C)(C)C2
19,221 to 223,COc1ccc(-c2c(Cl)c(CN3C(=O)CCC3=O)nc3sc4c(c23)CC(C)(C)C(OCc2ccccc2)C4)cc1 (stereo not given)
20,276 to 277,N#Cc1ccc(-c2ccc(-c3ccc(C#N)nc3)o2)cc1
21,206 to 209,CC(C(O)c1ccc2c(c1)CCCS2)N1CCN(C(=O)C=Cc2ccccc2Cl)CC1 (stereo not given)
22,126 to 127,CCCn1c(=O)c(-c2ccccc2)c2n(c1=O)CCC(Sc1ccccc1)S2 (stereo not given)
23,143 to 144,N/C(=C1/Sc2ccccc2C1=O)c1ccccc1Br

row,Structure (SMILES),melting point [°C]
1,O=C(O)C1CC2CC(CP(=O)(O)O)CCC2CN1 (stereo not given),208 to 211
2,O=c1ccc(C(F)(F)F)cn1Cc1ccccc1NCCCl,93.5 to 95
